Source: US20220380374A1, “1,4-DIHYDROBENZO[D]PYRAZOLO[3,4-F][1,3]DIAZEPINE DERIVATIVES AND RELATED COMPOUNDS AS LRRK2, NUAK1 AND/OR TYK2 KINASE MODULATORS FOR THE TREATMENT OF E.G. AUTOIMMUNE DISEASE” (Origenis GMBH, priority 2019, published 2022)

target: T1, wt human NUAK1, full length (Homo sapiens, UniProt O60285); test: TR-FRET LanthaScreen Eu Kinase Binding Assay, NUAK1; details: 5 nM Kinase Tracer 236; read-out: IC50, inhibitory activity toward NUAK1
T1 construct: 8 nM wt human NUAK1, full length (ThermoFisher/USA); purchased ThermoFisher/USA
T1 sequence (O60285 1-661): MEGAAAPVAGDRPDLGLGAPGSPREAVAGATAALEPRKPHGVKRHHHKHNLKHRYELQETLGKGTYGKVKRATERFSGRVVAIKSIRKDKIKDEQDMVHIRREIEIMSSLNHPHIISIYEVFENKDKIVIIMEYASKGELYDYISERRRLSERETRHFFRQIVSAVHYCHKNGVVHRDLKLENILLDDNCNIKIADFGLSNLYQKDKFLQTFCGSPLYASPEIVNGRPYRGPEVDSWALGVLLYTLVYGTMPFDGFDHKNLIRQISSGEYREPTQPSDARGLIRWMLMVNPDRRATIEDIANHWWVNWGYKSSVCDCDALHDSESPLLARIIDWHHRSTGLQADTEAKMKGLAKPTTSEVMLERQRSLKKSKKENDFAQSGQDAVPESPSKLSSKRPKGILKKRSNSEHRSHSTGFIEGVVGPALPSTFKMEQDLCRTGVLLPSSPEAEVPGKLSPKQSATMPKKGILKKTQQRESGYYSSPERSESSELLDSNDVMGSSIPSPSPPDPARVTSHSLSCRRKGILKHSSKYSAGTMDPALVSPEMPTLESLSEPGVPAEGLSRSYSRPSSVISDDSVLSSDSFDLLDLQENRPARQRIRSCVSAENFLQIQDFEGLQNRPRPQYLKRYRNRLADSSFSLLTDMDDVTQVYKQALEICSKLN
Protocol: The basic protocol for TR-FRET LanthaScreen Eu Kinase Binding Assay inhibitor studies were performed as follows. LanthaScreen Kinase Binding Assays (ThermoFisher/USA) to evaluate inhibitors were performed by addition of 5 μl of test compound in corresponding DMSO dilutions/5 μl of kinase/antibody mixture, 5 μl of tracer into 384 well small volume plates. After incubation for 1 hour at room temperature, plates were read. Data analysis of emission ratios was according to LanthaScreen Eu Kinase Binding Assay protocol.
Kinase and assay components were adjusted to final concentrations according to the kit protocol. For LRRK2: 5 nM wt human LRRK2, catalytic site, or G2019S human LRRK2, catalytic site (ThermoFisher/USA), 2 nM Eu-Anti-GST Antibody, 10 nM Kinase Tracer 236 in 1× Kinase Buffer A. For NUAK1: 8 nM wt human NUAK1, full length (ThermoFisher/USA), 2 nM Eu-Anti-His Antibody, 5 nM Kinase Tracer 236 in 1× Kinase Buffer A.

IC50 [nM]	SMILES
100 to 1000	Fc1cccc(F)c1C1=Nc2cn[nH]c2-c2cc(OC(F)(F)F)ccc2N1 [Compound 40, 5-(2,6-difluorophenyl)-9-(trifluoromethoxy)-1,6-dihydrobenzo[d]pyrazolo[3,4-f][1,3]diazepine]
100 to 1000	Fc1cccc(Cl)c1C1=Nc2cn[nH]c2-c2cc(OC(F)(F)F)ccc2N1 [Compound 41, 5-(2-chloro-6-fluorophenyl)-9-(trifluoromethoxy)-1,6-dihydrobenzo[d]pyrazolo[3,4-f][1,3]diazepine]
10 to 100	CCc1ccc2c(c1)-c1[nH]ncc1N=C(c1c(F)cccc1F)N2 [Compound 44, 5-(2,6-difluorophenyl)-9-ethyl-1,6-dihydrobenzo[d]pyrazolo[3,4-f][1,3]diazepine]
10 to 100	Fc1cccc(F)c1C1=Nc2cn[nH]c2-c2cc(C(F)(F)F)ccc2N1 [Compound 46, 5-(2,6-difluorophenyl)-9-(trifluoromethyl)-1,6-dihydrobenzo[d]pyrazolo[3,4-f][1,3]diazepine]
100 to 1000	Fc1cccc(Cl)c1C1=Nc2cn[nH]c2-c2cc(C(F)(F)F)ccc2N1 [Compound 47, 5-(2-chloro-6-fluorophenyl)-9-(trifluoromethyl)-1,6-dihydrobenzo[d]pyrazolo[3,4-f][1,3]diazepine]
100 to 1000	FCc1ccc2c(c1)-c1[nH]ncc1N=C(c1c(F)cccc1F)N2 [Compound 51, 5-(2,6-difluorophenyl)-9-(fluoromethyl)-1,6-dihydrobenzo[d]pyrazolo[3,4-f][1,3]diazepine]
100 to 1000	Fc1cccc(F)c1C1=Nc2cn[nH]c2-c2cc(-c3ccc[nH]3)cnc2N1 [Compound 87, 5-(2,6-difluorophenyl)-9-(1H-pyrrol-2-yl)-1,6-dihydropyrazolo[4,3-d]pyrido[3,2-f][1,3]diazepine]
100 to 1000	CC(C)Oc1ccc2c(c1)NC(c1c(F)cccc1F)=Nc1cn[nH]c1-2 [Compound 100, 5-(2,6-difluorophenyl)-8-isopropoxy-1,6-dihydrobenzo[d]pyrazolo[3,4-f][1,3]diazepine]
100 to 1000	Fc1cccc(F)c1C1=Nc2cn[nH]c2-c2cc(OC3CCOCC3)ccc2N1 [Compound 102, 5-(2,6-difluorophenyl)-9-((tetrahydro-2H-pyran-4-yl)oxy)-1,6-dihydrobenzo[d]pyrazolo[3,4-f][1,3]diazepine]
100 to 1000	Fc1cccc(F)c1C1=Nc2c(C3CC3)n[nH]c2-c2ccccc2N1 [Compound 137, 3-cyclopropyl-5-(2,6-difluorophenyl)-1,6-dihydrobenzo[d]pyrazolo[3,4-f][1,3]diazepine]
100 to 1000	NC(=O)c1cnc2c(c1)-c1[nH]ncc1N=C(c1c(F)cccc1F)N2 [Compound 140, 5-(2,6-difluorophenyl)-1,6-dihydropyrazolo[4,3-d]pyrido[3,2-f][1,3]diazepine-9-carboxamide]
100 to 1000	CSc1n[nH]c2c1NC(c1c(F)cccc1F)=Nc1ccc(C)cc1-2 [Compound 145, 5-(2,6-difluorophenyl)-9-methyl-3-(methylthio)-1,4-dihydrobenzo[d]pyrazolo[3,4-f][1,3]diazepine]
100 to 1000	CCc1cc(F)c2c(c1)-c1[nH]ncc1NC(c1c(F)cccc1F)=N2 [Compound 167, 5-(2,6-difluorophenyl)-9-ethyl-7-fluoro-1,4-dihydrobenzo[d]pyrazolo[3,4-f][1,3]diazepine]
10 to 100	COc1cc(F)c(C2=Nc3cn[nH]c3-c3cc(C)ccc3N2)c(F)c1 [Compound 173, 5-(2,6-difluoro-4-methoxyphenyl)-9-methyl-1,6-dihydrobenzo[d]pyrazolo[3,4-f][1,3]diazepine]
10 to 100	Cc1ccc2c(c1)-c1[nH]ncc1N=C(c1c(F)cc(F)cc1F)N2 [Compound 175, 9-methyl-5-(2,4,6-trifluorophenyl)-1,6-dihydrobenzo[d]pyrazolo[3,4-f][1,3]diazepine]
100 to 1000	Cc1ccc2c(c1)-c1[nH]ncc1N=C(c1c(F)cc(Br)cc1F)N2 [Compound 176, 5-(4-bromo-2,6-difluorophenyl)-9-methyl-1,6-dihydrobenzo[d]pyrazolo[3,4-f][1,3]diazepine]
100 to 1000	Cc1ccc2c(c1)-c1[nH]ncc1N=C(c1c(F)ccc(N)c1F)N2 [Compound 177, 2,4-difluoro-3-(9-methyl-1,6-dihydrobenzo[d]pyrazolo[3,4-f][1,3]diazepin-5-yl)aniline]
10 to 100	Cc1ccc2c(c1)-c1n[nH]cc1NC(c1c(F)ccc(C)c1F)=N2 [Compound 178, 5-(2,6-difluoro-3-methylphenyl)-9-methyl-2,4-dihydrobenzo[d]pyrazolo[3,4-f][1,3]diazepine]
10 to 100	Cc1cc(F)c(C2=Nc3ccc(C)cc3-c3n[nH]cc3N2)c(F)c1 [Compound 179, 5-(2,6-difluoro-4-methylphenyl)-9-methyl-2,4-dihydrobenzo[d]pyrazolo[3,4-f][1,3]diazepine]
100 to 1000	Cc1ccc2c(c1)-c1[nH]ncc1NC(c1c(F)ccc(F)c1Cl)=N2 [Compound 185, 5-(2-chloro-3,6-difluorophenyl)-9-methyl-1,4-dihydrobenzo[d]pyrazolo[3,4-f][1,3]diazepine]
100 to 1000	Fc1cccc(Cl)c1C1=Nc2cnc(C(F)(F)F)cc2-c2[nH]ncc2N1 [Compound 188, 5-(2-chloro-6-fluorophenyl)-9-(trifluoromethyl)-1,4-dihydropyrazolo[4,3-d]pyrido[4,3-f][1,3]diazepine]
100 to 1000	FCCc1ccc2c(c1)-c1n[nH]cc1NC(c1c(F)cccc1F)=N2 [Compound 204, 5-(2,6-difluorophenyl)-9-(2-fluoroethyl)-2,4-dihydrobenzo[d]pyrazolo[3,4-f][1,3]diazepine]
100 to 1000	Cc1ccc2c(c1)-c1n[nH]cc1NC(c1c(F)cc(C(F)(F)F)cc1F)=N2 [Compound 205, 5-(2,6-difluoro-4-(trifluoromethyl)phenyl)-9-methyl-2,4-dihydrobenzo[d]pyrazolo[3,4-f][1,3]diazepine]
100 to 1000	Cc1ccc2c(c1)-c1n[nH]cc1NC(c1c(F)cccc1C(F)(F)F)=N2 [Compound 206, 5-(2-fluoro-6-(trifluoromethyl)phenyl)-9-methyl-2,4-dihydrobenzo[d]pyrazolo[3,4-f][1,3]diazepine]
10 to 100	O=C(Nc1ccc2c(c1)-c1n[nH]cc1NC(c1c(F)cccc1F)=N2)OCc1ccccc1 [Compound 207, benzyl(5-(2,6-difluorophenyl)-2,4-dihydrobenzo[d]pyrazolo[3,4-f][1,3]diazepin-9-yl)carbamate]
100 to 1000	OCCc1ccc2c(c1)-c1n[nH]cc1NC(c1c(F)cccc1F)=N2 [Compound 208, 2-(5-(2,6-difluorophenyl)-2,4-dihydrobenzo[d]pyrazolo[3,4-f][1,3]diazepin-9-yl)ethan-1-ol]
10 to 100	Fc1cccc(F)c1C1=Nc2ccc(CCCl)cc2-c2n[nH]cc2N1 [Compound 209, 9-(2-chloroethyl)-5-(2,6-difluorophenyl)-2,4-dihydrobenzo[d]pyrazolo[3,4-f][1,3]diazepine]
100 to 1000	Cc1ccc2c(c1)-c1n[nH]c(C)c1NC(c1c(F)cccc1F)=N2 [Compound 212, 5-(2,6-difluorophenyl)-3,9-dimethyl-2,4-dihydrobenzo[d]pyrazolo[3,4-f][1,3]diazepine]

SMILES	IC50 [nM]
CN(C)C(=O)Oc1ccc2c(c1)-c1[nH]ncc1NC(c1c(F)cccc1F)=N2 [Compound 136, 5-(2,6-difluorophenyl)-1,4-dihydrobenzo[d]pyrazolo[3,4-f][1,3]diazepin-9-yl dimethylcarbamate]	100 to 1000
